# Experimental data published in patent US20240285557A1, “PHARMACEUTICAL COMPOSITION COMPRISING LIPASE INHIBITOR FOR TREATMENT OR TREATMENT OF RNA VIRAL INFECTIONS” (priority 2021, published 2024).
# Test system: SARS-COV-2 KCDC03 strain (A lineage), KDCA51463 strain (Alpha lineage), and KDCA55905 strain (Beta lineage)
# Assay type: in vivo, Golden Syrian hamsters
# Details: 40 mg kg^−1 day^−1 lipase inhibitor, 2.5 mg/kg/day remdesivir
compound,measurement,value
CCN(CC)C(=O)Nc1cccc(-c2ccc(N(C)C)cc2)c1 [DABPU-DE],"pneumonia severity (and weight loss), comparison between treatment groups",more improvement
